System: not listed separately
Assay: Human plasma protein binding (equilibrium dialysis)
Type: in vitro ADME
Details: dialysis 18 hours

Row | SMILES | Human plasma protein binding (% free)
1 | COCc1ccc(OCCNCCCF)cc1[C@@H]1c2[nH]c3ccccc3c2C[C@@H](C)N1CC(F)(F)F [Example 71, 3-fluoro-N-(2-(4-(methoxymethyl)-3-((1R,3R)-3-methyl-2-(2,2,2-trifluoroethyl)-2,3,4,9-tetrahydro-1H-pyrido[3,4-b]indol-1-yl)phenoxy)ethyl)propan-1-amine] | 0.44
2 | Cc1c(OCCNCCCF)ccc(F)c1[C@@H]1c2[nH]c3ccccc3c2CC(C)(C)N1C[C@H](C)C(=O)O [Example 134, (S)-3-((R)-1-(6-fluoro-3-(2-((3-fluoropropyl)amino)ethoxy)-2-methylphenyl)-3,3-dimethyl-1,3,4,9-tetrahydro-2H-pyrido[3,4-b]indol-2-yl)-2-methylpropanoic acid] | 36
3 | Cc1c(OCCN(C)CCCF)ccc(F)c1[C@@H]1c2[nH]c3ccccc3c2C[C@@H](C(F)(F)F)N1C[C@H](C)C(=O)O [Example 149, (S)-3-((1R,3S)-1-(6-fluoro-3-(2-((3-fluoropropyl)(methyl)amino)ethoxy)-2-methylphenyl)-3-(trifluoromethyl)-1,3,4,9-tetrahydro-2H-pyrido[3,4-b]indol-2-yl)-2-methylpropanoic acid] | 5.3
4 | C[C@@H]1Cc2c([nH]c3ccccc23)[C@@H](c2c(F)ccc(OCCN(C)CCCF)c2F)N1CC1(F)COC1 [Example 154, N-(2-(2,4-difluoro-3-((1R,3R)-2-((3-fluorooxetan-3-yl)methyl)-3-methyl-2,3,4,9-tetrahydro-1H-pyrido[3,4-b]indol-1-yl)phenoxy)ethyl)-3-fluoro-N-methylpropan-1-amine] | 2.7
5 | Cc1c([C@@H]2c3[nH]c4ccccc4c3C[C@@H](C)N2C[C@@H](C)C(=O)O)ccnc1OCCN(C)CCCF [Example 161, (R)-3-((1R,3R)-1-(2-(2-((3-fluoropropyl)(methyl)amino)ethoxy)-3-methylpyridin-4-yl)-3-methyl-1,3,4,9-tetrahydro-2H-pyrido[3,4-b]indol-2-yl)-2-methylpropanoic Acid] | 6.3
6 | Cc1c(OCCNCCC(F)F)ccc(F)c1[C@@H]1c2[nH]c3ccc(F)cc3c2C[C@@H](C)N1C[C@@H](C)C(=O)O [Example 162, (R)-3-((1R,3R)-1-(3-(2-((3,3-difluoropropyl)amino)ethoxy)-6-fluoro-2-methylphenyl)-6-fluoro-3-methyl-1,3,4,9-tetrahydro-2H-pyrido[3,4-b]indol-2-yl)-2-methylpropanoic Acid] | 27
7 | Cc1c(OCCN(C)CCCF)ccc(F)c1[C@@H]1c2[nH]c3ccccc3c2C[C@@H](C)N1CCC(=O)O [Example 163, 3-((1R,3R)-1-(6-fluoro-3-(2-((3-fluoropropyl)(methyl)amino)ethoxy)-2-methylphenyl)-3-methyl-1,3,4,9-tetrahydro-2H-pyrido[3,4-b]indol-2-yl)propanoic Acid] | 49

Second part, the compound after the results:

Row | Human plasma protein binding (% free) | SMILES
8 | 8.4 | Cc1c(OCCNCCCF)ccc(F)c1[C@@H]1c2[nH]c3ccccc3c2C[C@@H](C)N1CC(F)(F)C(=O)O [Example 118, 2,2-difluoro-3-((1R,3R)-1-(6-fluoro-3-(2-((3-fluoropropyl)amino)ethoxy)-2-methylphenyl)-3-methyl-1,3,4,9-tetrahydro-2H-pyrido[3,4-b]indol-2-yl)propanoic acid]
9 | 15 | C[C@@H]1Cc2c([nH]c3ccccc23)[C@@H](c2c(Cl)ccc(OCCNCCCF)c2Cl)N1C[C@H](C)C(=O)O [Example 128, (S)-3-((1R,3R)-1-(2,6-dichloro-3-(2-((3-fluoropropyl)amino)ethoxy)phenyl)-3-methyl-1,3,4,9-tetrahydro-2H-pyrido[3,4-b]indol-2-yl)-2-methylpropanoic acid]
10 | 32 | C[C@@H]1Cc2c([nH]c3ccccc23)[C@@H](c2c(F)ccc(OCCNCCCF)c2Cl)N1CC(C)(C)C(=O)O [Example 131, 3-((1R,3R)-1-(2-chloro-6-fluoro-3-(2-((3-fluoropropyl)amino)ethoxy)phenyl)-3-methyl-1,3,4,9-tetrahydro-2H-pyrido[3,4-b]indol-2-yl)-2,2-dimethylpropanoic acid]
11 | 34 | Cc1c([C@@H]2c3[nH]c4ccccc4c3C[C@@H](C)N2C[C@H](C)C(=O)O)ccnc1OCCNCCCF [Example 132, (S)-3-((1R,3R)-1-(2-2-((3-(fluoropropyl)amino)ethoxy)-3-methylpyridin-4-yl)-3-methyl-1,3,4,9-tetrahydro-2H-pyrido[3,4-b]indol-2-yl)-2-methylpropanoic acid]
12 | 32 | Cc1c(NCCNCCCF)ccc(F)c1[C@@H]1c2[nH]c3ccccc3c2C[C@@H](C)N1C[C@H](C)C(=O)O [Example 135, (S)-3-((1R,3R)-1-(6-fluoro-3-((2-((3-fluoropropyl)amino)ethyl)amino)-2-methylphenyl)-3-methyl-1,3,4,9-tetrahydro-2H-pyrido[3,4-b]indol-2-yl)-2-methylpropanoic acid]
13 | 2.1 | Cc1c(N(C)CCNCCCF)ccc(F)c1[C@@H]1c2[nH]c3ccccc3c2C[C@@H](C)N1C[C@H](C)C(=O)O [Example 136, (S)-3-((1R,3R)-1-(6-fluoro-3-((2-((3-fluoropropyl)amino)ethyl)(methyl)amino)-2-methylphenyl)-3-methyl-1,3,4,9-tetrahydro-2H-pyrido[3,4-b]indol-2-yl)-2-methylpropanoic acid]
14 | 19 | Cc1c(N(C)CCN(C)CCCF)ccc(F)c1[C@@H]1c2[nH]c3ccccc3c2C[C@@H](C)N1C[C@H](C)C(=O)O [Example 147, (S)-3-((1R,3R)-1-(6-fluoro-3-((2-((3-fluoropropyl)(methyl)amino)ethyl)(methyl)amino)-2-methylphenyl)-3-methyl-1,3,4,9-tetrahydro-2H-pyrido[3,4-b]indol-2-yl)-2-methylpropanoic acid]
15 | 10 | C[C@@H]1Cc2c([nH]c3ccccc23)[C@@H](c2c(F)ccc(OCCN(C)CCCF)c2C(F)F)N1C[C@H](C)C(=O)O [Example 148, (S)-3-((1R,3R)-1-(2-(difluoromethyl)-6-fluoro-3-(2-((3-fluoropropyl)(methyl)amino)ethoxy)phenyl)-3-methyl-1,3,4,9-tetrahydro-2H-pyrido[3,4-b]indol-2-yl)-2-methylpropanoic acid]

Target: Estrogen Receptor (ERα) in MCF-7 cells (Homo sapiens (Human), UniProt P03372)
Sequence (P03372 whole entry): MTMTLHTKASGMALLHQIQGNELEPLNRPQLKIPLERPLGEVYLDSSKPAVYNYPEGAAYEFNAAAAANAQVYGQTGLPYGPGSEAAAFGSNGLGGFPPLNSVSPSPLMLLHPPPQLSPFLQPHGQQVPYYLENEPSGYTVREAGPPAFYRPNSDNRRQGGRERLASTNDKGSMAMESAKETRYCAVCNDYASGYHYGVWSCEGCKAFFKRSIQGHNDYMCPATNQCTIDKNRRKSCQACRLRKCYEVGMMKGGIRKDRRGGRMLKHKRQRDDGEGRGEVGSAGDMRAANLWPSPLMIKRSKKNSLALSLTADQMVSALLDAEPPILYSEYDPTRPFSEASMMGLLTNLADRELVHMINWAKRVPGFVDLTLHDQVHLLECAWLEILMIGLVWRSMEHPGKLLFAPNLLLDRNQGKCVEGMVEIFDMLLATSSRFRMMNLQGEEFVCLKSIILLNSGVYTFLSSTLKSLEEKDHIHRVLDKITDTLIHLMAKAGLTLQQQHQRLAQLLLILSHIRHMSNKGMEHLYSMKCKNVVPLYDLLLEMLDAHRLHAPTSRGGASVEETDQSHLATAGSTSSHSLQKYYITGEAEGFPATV
Assay: MCF-7 ER down-regulation assay (immuno-fluorescence)
Type: cell-based
Details: maximum downregulation in the assay

Row | SMILES | % downregulation (in brackets) [%]
16 | COCc1ccc(OCCNCCCF)cc1[C@@H]1c2[nH]c3ccccc3c2C[C@@H](C)N1CC(F)(F)F [Example 71, 3-fluoro-N-(2-(4-(methoxymethyl)-3-((1R,3R)-3-methyl-2-(2,2,2-trifluoroethyl)-2,3,4,9-tetrahydro-1H-pyrido[3,4-b]indol-1-yl)phenoxy)ethyl)propan-1-amine] | 90

— patent publication US10590132B2, “Selective estrogen receptor down-regulators” (AstraZeneca AB, priority 2017, dated 2020)
